# Tested on: T1, cathepsin B/X (cysteine peptidase of the spine aqueous extract)
# T1 construct: gene CTSB; anti-cathepsin B bands between 60 and 80 kDa
# Experiment: fluorogenic substrate hydrolysis (MCA release), non-linear regression
# Format: biochemical, Echinometra lucunter
# Settings: crude spine extract; 100 mM ammonium acetate, pH 7.4, 30°C; preincubated with 2 mM DTT
# Text: fluorogenic substrate hydrolysis (MCA release), non-linear regression on cathepsin B/X (cysteine peptidase of the spine aqueous extract)
structure (smiles),measurement,value
"Cc1cc(=O)oc2cc(NC(=O)[C@H](CCCNC(=N)N)NC(=O)OCc3ccccc3)ccc12 [Z-R-MCA, carbobenzoxy-L-arginine-7-amino-4-methylcoumarin]",Km,147 ± 40 µM

# Reference: publication PMC3880103, “Cathepsin B/X is secreted by Echinometra lucunter sea urchin spines, a structure rich in granular cells and toxins” (The Journal of Venomous Animals and Toxins Including …, 2013)
